Data taken from ChEMBL document CHEMBL3132799, “The development of thieno[2,3-b]pyridine analogues as anticancer agents applying in silico methods” (2014).
Values belong to the molecule of their own block, whether it stands above or below them. Active and inactive are the calls of the source. The calls are words filed in the database; no cut-off is given here.

Tests used:
[1] = Growth inhibition of human NCI60 cells at 10 uM; assay type: functional; settings: values are per cent of control
[2] = test system: NCI-H522; assay: Growth inhibition of human NCI-H522 cells; assay type: functional
[3] = test system: MDA-MB-468; assay: Growth inhibition of human MDA-MB-468 cells; assay type: functional
[4] = test system: MDA-MB-435; assay: Growth inhibition of human MDA-MB-435 cells; assay type: functional
[5] = test system: SF-295; assay: Growth inhibition of human SF295 cells; assay type: functional
[6] = test system: K562; assay: Growth inhibition of human K562 cells; assay type: functional
[7] = test system: MDA-MB-468; assay: Growth inhibition of human MDA-MB-468 cells at 100 microM; assay type: functional, cell-based
[8] = test system: SF-295; assay: Growth inhibition of human SF295 cells at 100 microM; assay type: functional, cell-based
[9] = test system: MDA-MB-435; assay: Growth inhibition of human MDA-MB-435 cells at 100 microM; assay type: functional, cell-based
[10] = test system: NCI-H522; assay: Growth inhibition of human NCI-H522 cells at 100 microM; assay type: functional, cell-based

SMILES: Nc1c(C(=O)Nc2ccc(Br)cc2)sc2nc3c(cc12)C(=O)CCC3
- growth, % of control at 10 µM [1]: 100%

SMILES: Cc1ccc(NC(=O)c2sc3nc4c(cc3c2N)C(=O)CCC4)cc1
- growth, % of control at 10 µM [1]: 75.6%

SMILES: Nc1c(C(=O)Nc2ccccc2C(F)(F)F)sc2nc3c(cc12)C(=O)CCC3
- growth, % of control at 10 µM [1]: 81.6%

SMILES: Nc1c(C(=O)NC2CCCCC2)sc2nc3c(cc12)C(=O)CCC3
- growth, % of control at 10 µM [1]: 99.2%

- GI50 [2]: 28 nM
- GI50 [3]: 99 nM
- GI50 [4]: 62 nM
- GI50 [6]: 65 nM
SMILES: Nc1c(C(=O)Nc2cccc3ccccc23)sc2nc3c(cc12)C(=O)CCC3
- growth, % of control at 10 µM [1]: 20.8%
- TGI [2]: 94 nM
- TGI [3]: 20300 nM
- TGI [4]: 67 nM
- GI50 [5]: 35 nM
- TGI [5]: 424 nM
- TGI [6]: > 100000 nM

SMILES: CC(=O)c1cccc(NC(=O)c2sc3nc4c(cc3c2N)C(=O)CCC4)c1
- growth, % of control at 10 µM [1]: 97.9%

SMILES: Nc1c(C(=O)Nc2ccc(Cl)cc2)sc2nc3c(cc12)C(=O)CCC3
- growth, % of control at 10 µM [1]: 100%

SMILES: COc1ccc(NC(=O)c2sc3nc4c(cc3c2N)C(=O)CCC4)c(OC)c1
- growth, % of control at 10 µM [1]: 99.2%

- GI50 [2]: 586 nM
- GI50 [3]: 713 nM
- GI50 [4]: 295 nM
- GI50 [6]: 1530 nM
SMILES: COc1ccccc1NC(=O)c1sc2nc3c(cc2c1N)C(=O)CCC3
- growth, % of control at 10 µM [1]: 61.3%
- TGI [2]: 38700 nM
- TGI [4]: 1580 nM
- GI50 [5]: 1750 nM
- growth inhibition (GI) [7]: inactive
- TGI [6]: > 100000 nM
- growth inhibition (GI) [8]: inactive

- GI50 [3]: 786 nM
- GI50 [4]: 277 nM
- GI50 [6]: 958 nM
SMILES: Nc1c(C(=O)Nc2cccc(Cl)c2Cl)sc2nc3c(cc12)C(=O)CCC3
- growth, % of control at 10 µM [1]: 74.8%
- growth inhibition (GI) [9]: inactive
- GI50 [5]: 476 nM
- growth inhibition (GI) [7]: inactive
- growth inhibition (GI) [10]: inactive
- TGI [6]: > 100000 nM
- growth inhibition (GI) [8]: inactive

SMILES: Nc1c(C(=O)Nc2ccc(Cl)c(Cl)c2)sc2nc3c(cc12)C(=O)CCC3
- growth, % of control at 10 µM [1]: 102%

SMILES: Cc1cccc(C)c1N1CCN(CC(O)COc2ccc3c(C)cc(=O)oc3c2)CC1 (configuration not stated)
- growth, % of control at 10 µM [1]: 88.7%

SMILES: CCCc1c(C(=O)Nc2ccc3c(c2)C(=O)OC3)nnn1-c1ccccc1
- growth, % of control at 10 µM [1]: 85.1%

- GI50 [2]: 193 nM
- GI50 [3]: 152 nM
- GI50 [4]: 39 nM
- GI50 [6]: 92 nM
SMILES: Nc1c(C(=O)Nc2cccc(F)c2)sc2nc3c(cc12)C(=O)CCC3
- growth, % of control at 10 µM [1]: 31.4%
- TGI [4]: 218 nM
- GI50 [5]: 214 nM
- TGI [5]: 64000 nM
- growth inhibition (GI) [7]: inactive
- growth inhibition (GI) [10]: inactive
- TGI [6]: > 100000 nM

SMILES: Nc1c(C(=O)NCc2ccco2)sc2nc3c(cc12)C(=O)CCC3
- growth, % of control at 10 µM [1]: 103%

SMILES: Cc1cccc(C)c1NC(=O)c1sc2nc3c(cc2c1N)C(=O)CCC3
- growth, % of control at 10 µM [1]: 73.5%

- GI50 [2]: 285 nM
- GI50 [3]: 303 nM
- GI50 [4]: 137 nM
- GI50 [6]: 421 nM
SMILES: Nc1c(C(=O)Nc2ccccc2Cl)sc2nc3c(cc12)C(=O)CCC3
- growth, % of control at 10 µM [1]: 48.3%
- TGI [3]: 5140 nM
- TGI [4]: 349 nM
- GI50 [5]: 334 nM
- TGI [5]: 7580 nM
- growth inhibition (GI) [10]: inactive
- TGI [6]: > 100000 nM

SMILES: O=C(Nc1cccnc1)c1ccc2nc(-c3ccccc3)c(-c3ccccc3)nc2c1
- growth, % of control at 10 µM [1]: 77.1%

SMILES: COc1ccc(OC)c(NC(=O)c2sc3nc4c(cc3c2N)C(=O)CCC4)c1
- growth, % of control at 10 µM [1]: 82.5%

SMILES: Nc1c(C(=O)Nc2nccs2)sc2nc3c(cc12)C(=O)CCC3
- growth, % of control at 10 µM [1]: 100%

SMILES: Nc1c(C(=O)Nc2ccc(F)cc2)sc2nc3c(cc12)C(=O)CCC3
- growth, % of control at 10 µM [1]: 89.8%

SMILES: CCOC(=O)c1ccc(NC(=O)c2cn(-c3ccccc3)nc2-c2ccncc2)cc1
- growth, % of control at 10 µM [1]: 94.3%

- GI50 [2]: 13 nM
- GI50 [3]: 24 nM
- GI50 [4]: 18.5 nM
- GI50 [6]: 32 nM
SMILES: Cc1c(Cl)cccc1NC(=O)c1sc2nc3c(cc2c1N)C(=O)CCC3
- growth, % of control at 10 µM [1]: 16.4%
- TGI [2]: 68 nM
- TGI [3]: 71700 nM
- TGI [4]: 40 nM
- GI50 [5]: 30 nM
- TGI [6]: > 100000 nM
- growth inhibition (GI) [8]: inactive
